Measurements as given in patent US8569573B2 (priority 2007, dated 2013).

Assays:
FRG mice = assay: Maintenance of FRG mice with NTBC in drinking water and NTBC withdrawal; type: in vivo, mouse
Description: Several strains of immune-deficient Fah knockout mice were generated. Crossing the Fah mutation onto nude, nod/scid or Rag1^−/− backgrounds was unsuccessful. To generate an immunodeficient Fah^−/− mouse strain completely lacking T cells, B cells and NK cells, but without a DNA repair defect, Fah^−/−/Rag2^−/−/Il2rg^−/− (FRG) mice were generated. Male Fah^−/−129S4 mice (Grompe et al. Genes Dev. 7:2298-2307, 1993) were crossed with female Rag2^−/−/Il2rg^−/− mice (Taconic). All animals were maintained with drinking water containing 2-(2-nitro-4-trifluoro-methyl-benzoyl)-1,3 cyclohexanedione (NTBC) at a concentration of 1.6 mg/L (Grompe et al. Nat. Genet. 10:453-460, 1995). To confirm the genotypes of each animal, PCR-based genotyping was carried out on 200 ng genomic DNA isolated from toe tissue (Grompe et al. Genes Dev. 7:2298-2307, 1993; Traggiai et al. Science 304:104-107, 2004).

CYP1A1 and 1A2 = assay: Ethoxyresorufin-O-deethylase (EROD) activity on cultured hepatocytes from humanized FRG mouse liver; type: cell-based, human; details: humanized mouse liver cells, FIG. 6a
[1] = tested on: human drug metabolism genes; assay: Induction of mRNAs involved in drug metabolism in cultured hepatocytes from chimeric mice (real-time PCR)
Description: (§1) The basal expression and induction of human liver specific genes in chimeric mice was examined. […] Primers, obtained from Applied Biosystems, were specific for human CYP1A1 (Hs00153120_m1), CYP1A2 (Hs00167927_m1), CYP3A4 (Hs00430021_m1), CYP3A7 (Hs00426361_a1), CYP2B6 (Hs00167937_g1), CYP2D6 (Hs00164385_a1), Multidrug resistance associated protein MRP2 (Hs00166123_m1), Bile Salt export Pump BSEP, (Hs00184829_m1), CAR (Hs00231959_m1) Albumin (Hs00609411_m1), HNF4α (Hs00230853_m1), Cyclophillin (Hs99999904_m1) and mouse actin (Ma00607939_s1).
(§2) Cultures of isolated hepatocytes were established and exposed to prototypical inducers of the cytochrome P450 genes. […] In addition to the mRNA expression levels of human drug metabolism genes, the enzymatic activity of the human CYP1A and 3A family members were measured. Ethoxyresorufin-O-deethylase activity (EROD) is known to be mediated by CYP1A1 and 1A2 in human liver.

CYP3A4 = assay: Conversion of testosterone to 6-beta-hydroxyltestosterone in cultured hepatocytes from humanized FRG mouse liver; details: cultured hepatocytes from repopulated FRG livers, FIG. 6b
Description: as §1, §2

Question: `O=C1CCCC(=O)C1C(=O)c1ccc(C(F)(F)F)cc1[N+](=O)[O-]` [NTBC, 2-(2-nitro-4-trifluoro-methyl-benzoyl)-1,3 cyclohexanedione] was tested. Which “time to death after NTBC withdrawal” value (FRG mice; FRG mice, gradual hepatocellular injury after withdrawal) did it give?
Answer: Its value is 4-8 weeks.

Question: And the “growth and fertility of FRG mice” value (FRG mice; NTBC continuously in drinking water, 1.6 mg/L)?
Answer: Its value is “grew well and were fully fertile”.

Question: How did the “EROD activity after prior exposure to inducer” value (CYP1A1 and 1A2) turn out when `O=c1cc(-c2ccccc2)oc2ccc3ccccc3c12` [BNF, beta-naphthoflavone] was run?
Answer: The value was “specifically and robustly induced”.

Question: And the “pattern of genes induced” value ([1]; cultured hepatocytes from chimeric mice, FIG. 7)?
Answer: The value was “as expected from normal human cells”.

Question: Which results are given for `CCC1(c2ccccc2)C(=O)NC(=O)NC1=O` [PB, phenobarbital]?
Answer: conversion of testosterone to 6-beta-hydroxyltestosterone after prior exposure to inducer (CYP3A4): specifically induced; induction of CYP3A4 mRNA ([1]; relative to non-induced cultures, FIG. 7b): even more striking than at the enzyme level
